Measurements: patent US20090005361A1, “Combination of Organic Compounds” (priority 2006, published 2009)

What was measured:
Type in all cases: biochemical
[1] = system: mouse renin; test: renin inhibition, species specificity (mouse renin); conditions: stated in words, compared with human renin
[2] = target: T1, rat renin (Rattus norvegicus, UniProt P08424); test: renin inhibition, species specificity (rat renin); conditions: relative potency loss against rat renin
T1 sequence (P08424 65-402): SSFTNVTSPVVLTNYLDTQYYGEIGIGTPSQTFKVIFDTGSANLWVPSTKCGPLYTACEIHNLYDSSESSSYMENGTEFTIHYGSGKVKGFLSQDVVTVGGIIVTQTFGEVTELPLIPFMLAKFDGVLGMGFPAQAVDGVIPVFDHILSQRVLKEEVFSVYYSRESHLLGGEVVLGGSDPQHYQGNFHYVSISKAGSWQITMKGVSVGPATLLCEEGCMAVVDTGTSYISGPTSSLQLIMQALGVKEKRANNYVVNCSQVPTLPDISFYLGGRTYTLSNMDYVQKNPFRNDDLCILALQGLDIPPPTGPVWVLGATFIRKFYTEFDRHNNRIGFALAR

[3] = target: T2, dog renin (Canis lupus familiaris, UniProt Q6DYE7); test: renin inhibition, species specificity (dog renin); conditions: stated in words, compared with human renin
T2 sequence (Q6DYE7 66-403): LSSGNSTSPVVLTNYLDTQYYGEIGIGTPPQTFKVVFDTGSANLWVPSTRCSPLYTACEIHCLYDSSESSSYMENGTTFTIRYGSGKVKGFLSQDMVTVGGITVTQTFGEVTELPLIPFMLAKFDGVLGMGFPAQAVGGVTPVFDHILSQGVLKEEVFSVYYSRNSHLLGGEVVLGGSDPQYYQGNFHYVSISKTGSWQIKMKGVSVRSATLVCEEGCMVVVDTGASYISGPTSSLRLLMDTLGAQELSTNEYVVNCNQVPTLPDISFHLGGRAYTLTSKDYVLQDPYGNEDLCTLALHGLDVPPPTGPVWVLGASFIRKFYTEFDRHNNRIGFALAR

## COCCCOc1cc(C[C@@H](C[C@H](N)[C@@H](O)C[C@H](C(=O)NCC(C)(C)C(N)=O)C(C)C)C(C)C)ccc1OC [aliskiren, 2(S),4(S),5(S),7(S)-N-(3-amino-2,2-dimethyl-3-oxopropyl)-2,7-di(1-methylethyl)-4-hydroxy-5-amino-8-[4-methoxy-3-(3-methoxy-propoxy)phenyl]-octanamide]
[1]
  potency against mouse renin: reasonable potency
[2]
  weaker as a rat renin inhibitor: 1-2 orders of magnitude
[3]
  potency against dog renin: reasonable potency
